Measured values as given in US20260049092A1, “ANTIBACTERIAL COMPOUNDS” (Blacksmith Medicines, Inc., priority 2022, published 2026).
Values after ≈ are worked out from the molar mass of the structure shown. Read-outs that look alike come from different tables or passages of the source.

Legend:
Assay in all cases: Bacterial susceptibility testing (MIC, broth microdilution)
Format in all cases: cell-based
[1] = tested on: K. pneumoniae ATCC13883; conditions: for MIC: Klebsiella pneumoniae
Experimental: (§1) Minimal inhibitory concentrations (MIC) were determined by the broth microdilution method in accordance with the Clinical and Laboratory Standards Institute (CLSI) guidelines. In brief, organism suspensions were adjusted to a final inoculum between 3×10^5 and 7×10^5 colony-forming units (CFU)/mL. Drug dilutions and inocula were made in sterile, cation adjusted Mueller-Hinton Broth (Beckton Dickinson). In wells, an inoculum volume of 100 μL was mixed to 2 μL of DMSO with 2-fold serial dilutions of drug. All inoculated microdilution trays were incubated in ambient air at 35° C. for 18-24 h. Following incubation, the lowest concentration of the drug that prevented visible growth (OD600 nm<0.05) was recorded as the MIC. Performance of the assay was monitored by the use of laboratory quality -control strains and compounds with defined MIC spectrum, in accordance with CLSI guidelines.

[2] = tested on: E. coli ATCC25922; conditions: for MIC: Escherichia coli
Experimental: as §1

[3] = tested on: P. aeruginosa ATCC27853; conditions: for MIC: Pseudomonas aeruginosa
Experimental: as §1

[4] = tested on: P. aeruginosa PAO1; conditions: for MIC: Pseudomonas aeruginosa
Experimental: as §1

[5] = ATCC13883, broth microdilution, cation adjusted Mueller-Hinton Broth, 35° C., 18-24 h, read-out: K. pneumoniae ATCC13883 MIC
[6] = ATCC25922, broth microdilution, cation adjusted Mueller-Hinton Broth, 35° C., 18-24 h, read-out: E. coli ATCC25922 MIC
[7] = ATCC27853, broth microdilution, cation adjusted Mueller-Hinton Broth, 35° C., 18-24 h, read-out: P. aeruginosa ATCC27853 MIC
[8] = PAO1, broth microdilution, cation adjusted Mueller-Hinton Broth, 35° C., 18-24 h, read-out: P. aeruginosa PAO1 MIC
[9] = ATCC13883, read-out: K. pneumoniae ATCC13883 MIC
[10] = ATCC25922, read-out: E. coli ATCC25922 MIC
[11] = ATCC27853, read-out: P. aeruginosa ATCC27853 MIC
[12] = PAO1, read-out: P. aeruginosa PAO1 MIC
[13] = broth microdilution, cation adjusted Mueller-Hinton Broth, 35° C., 18-24 h

Row | SMILES | MIC [1, 5] [µg/mL] | MIC [2, 6] [µg/mL] | MIC [3, 7] [µg/mL] | MIC [4, 8] [µg/mL] | also measured
1 | C[C@H](O)c1nccn1[C@@H](C#Cc1ccc(-c2ccc(O[C@@H]3COC[C@H]3O)cc2)cc1F)CO (racemic) [Compound 4, (rac-trans)-4-((3′-fluoro-4′-((S)-4-hydroxy-3-(2-((S)-1-hydroxyethyl)-1H-imidazol-1-yl)but-1-yn-1-yl)-[1,1′-biphenyl]-4-yl)oxy)tetrahydrofuran-3-ol] | 4 (≈ 8.84 µM) | 2 (≈ 4.42 µM) | 8 (≈ 17.7 µM) | 8 (≈ 17.7 µM) | –
2 | CNC(=O)N1CC(Oc2ccc(-c3ccc(C#C[C@@H](CO)n4ccnc4[C@H](C)O)cc3)cc2)C1 [Compound 90, 3-((4′-((S)-4-hydroxy-3-(2-((S)-1-hydroxyethyl)-1H-imidazol-1-yl)but-1-yn-1-yl)-[1,1′-biphenyl]-4-yl)oxy)-N-methylazetidine-1-carboxamide] | 4 (≈ 8.69 µM) | 2 (≈ 4.34 µM) | 2 (≈ 4.34 µM) | 1 (≈ 2.17 µM) | –
3 | C[C@H](O)c1nccn1[C@@H](C#Cc1ccc(-c2ccc(CN[C@@H]3COC[C@H]3O)cc2)cc1)CO (racemic) [Compound 65] | 4 (≈ 8.94 µM) | 2 (≈ 4.47 µM) | 4 (≈ 8.94 µM) | 2 (≈ 4.47 µM) | –
4 | CNC(=O)C(C)Oc1ccc(-c2ccc(C#C[C@@H](CO)n3ccnc3[C@H](C)O)cc2)cc1 (mixture of isomers) [Compound 102, 2-((4′-((S)-4-hydroxy-3-(2-((S)-1-hydroxyethyl)-1H-imidazol-1-yl)but-1-yn-1-yl)-[1,1′-biphenyl]-4-yl)oxy)-N-methylpropanamide] | 4 (≈ 9.23 µM) | 2 (≈ 4.61 µM) | 8 (≈ 18.5 µM) | 4 (≈ 9.23 µM) | –
5 | C[C@H](O)c1nccn1[C@@H](C#Cc1ccc(-c2ccc(O[C@H]3C[C@@H](CNCC#N)C3)cc2)cc1)CO (racemic) [Compound 142, 2-((((rac-cis)-3-((4′-((S)-4-hydroxy-3-(2-((S)-1-hydroxyethyl)-1H-imidazol-1-yl)but-1-yn-1-yl)-[1,1′-biphenyl]-4-yl)oxy)cyclobutyl)methyl)amino)acetonitrile] | – | – | – | – | MIC [1, 9]: 2 µg/mL (≈ 4.25 µM); MIC [2, 10]: 1 µg/mL (≈ 2.13 µM); MIC [3, 11]: 4 µg/mL (≈ 8.5 µM); MIC [4, 12]: 2 µg/mL (≈ 4.25 µM)
6 | C[C@H](O)c1nccn1[C@@H](C#Cc1ccc(-c2ccc(CO[C@H]3COC[C@@H]3O)c(F)c2)cc1)CO (single isomer, unassigned) [Compound 45] | 2 (≈ 4.29 µM) | 1 (≈ 2.14 µM) | 4 (≈ 8.57 µM) | 2 (≈ 4.29 µM) | –
7 | C[C@H](O)c1nccn1[C@@H](C#Cc1ccc(-c2ccc(CO[C@@H]3COC[C@H]3O)c(F)c2)cc1)CO (racemic) [Compound 44, (rac-trans)-4-((3-fluoro-4′-((S)-4-hydroxy-3-(2-((S)-1-hydroxyethyl)-1H-imidazol-1-yl)but-1-yn-1-yl)-[1,1′-biphenyl]-4-yl)methoxy)tetrahydrofuran-3-ol] | 8 (≈ 17.1 µM) | 4 (≈ 8.57 µM) | 8 (≈ 17.1 µM) | 8 (≈ 17.1 µM) | –
8 | CC(N1CC(Oc2ccc(-c3ccc(C#C[C@@H](CO)n4ccnc4[C@H](C)O)cc3)cc2)C1)C(F)(F)F (mixture of isomers) [Compound 97, (2S)-2-(2-((S)-1-hydroxyethyl)-1H-imidazol-1-yl)-4-(4′-((1-(1,1,1-trifluoropropan-2-yl)azetidin-3-yl)oxy)-[1,1′-biphenyl]-4-yl)but-3-yn-1-ol] | – | – | – | – | MIC [1, 9]: 8 µg/mL (≈ 16 µM); MIC [2, 10]: 4 µg/mL (≈ 8.01 µM); MIC [3, 11]: 32 µg/mL (≈ 64.1 µM); MIC [4, 12]: 16 µg/mL (≈ 32 µM)
9 | C[C@H](O)c1nccn1[C@@H](C#Cc1ccc(-c2ccc(OC3COC[C@H]3O)c(F)c2)cc1)CO (single isomer, unassigned) [Compound 8] | 4 (≈ 8.84 µM) | 2 (≈ 4.42 µM) | 4 (≈ 8.84 µM) | 2 (≈ 4.42 µM) | –
10 | C[C@H](O)c1ccc(-c2ccc(C#C[C@@H](CO)n3ccnc3[C@H](C)O)cc2)cc1 (single isomer, unassigned) [Compound 134] | 8 (≈ 21.3 µM) | 1 (≈ 2.66 µM) | 8 (≈ 21.3 µM) | 4 (≈ 10.6 µM) | –
11 | CO[C@@H]1COC[C@H]1Oc1ccc(-c2ccc(C#C[C@@H](CO)n3ccnc3[C@H](C)O)cc2)cc1 (single isomer, unassigned) [Compound 125] | – | – | – | – | K. pneumoniae ATCC13883 MIC [1, 13]: 2 µg/mL; E. coli ATCC25922 MIC [2, 13]: 1 µg/mL; P. aeruginosa ATCC27853 MIC [3, 13]: 8 µg/mL; P. aeruginosa PAO1 MIC [4, 13]: 2 µg/mL
12 | C[C@H](O)c1nccn1[C@@H](C#Cc1ccc(-c2ccc(NC3CN(CCC#N)C3)cc2)cc1)CO [Compound 79, 3-(3-((4′-((S)-4-hydroxy-3-(2-((S)-1-hydroxyethyl)-1H-imidazol-1-yl)but-1-yn-1-yl)-[1,1′-biphenyl]-4-yl)amino)azetidin-1-yl)propanenitrile] | – | – | – | – | MIC [1, 9]: 8 µg/mL (≈ 17.6 µM); MIC [2, 10]: 1 µg/mL (≈ 2.2 µM); MIC [3, 11]: 4 µg/mL (≈ 8.78 µM); MIC [4, 12]: 2 µg/mL (≈ 4.39 µM)
13 | C[C@H](O)c1nccn1[C@@H](C#Cc1ccc(-c2ccc(NC3CN(CC#N)C3)cc2)cc1)CO (single isomer, unassigned) [Compound 66] | 4 (≈ 9.06 µM) | 1 (≈ 2.26 µM) | 4 (≈ 9.06 µM) | 2 (≈ 4.53 µM) | –
14 | CC(=O)NCc1ccc(-c2ccc(C#C[C@@H](CO)n3ccnc3[C@H](C)O)cc2)cc1 (single isomer, unassigned) [Compound 143] | 4 (≈ 9.91 µM) | 4 (≈ 9.91 µM) | 8 (≈ 19.8 µM) | 2 (≈ 4.96 µM) | –

Further lines, with some results ahead:

Row | MIC [1, 5] [µg/mL] | MIC [2, 6] [µg/mL] | MIC [3, 7] [µg/mL] | MIC [4, 8] [µg/mL] | SMILES | also measured
15 | 2 (≈ 4.42 µM) | 1 (≈ 2.21 µM) | 2 (≈ 4.42 µM) | 2 (≈ 4.42 µM) | C[C@H](O)c1nccn1[C@@H](C#Cc1ccc(-c2ccc(O[C@@H]3COC[C@H]3O)cc2F)cc1)CO (single isomer, unassigned) [Compound 3] | –
16 | 1 (≈ 2.34 µM) | 0.5 (≈ 1.17 µM) | 4 (≈ 9.38 µM) | 1 (≈ 2.34 µM) | C[C@H](O)c1nccn1[C@@H](C#Cc1ccc(-c2ccc([C@H]3C[C@](N)(C#N)C3)cc2)cc1)CO (racemic) [Compound 101, (rac-cis)-1-amino-3-(4′-((S)-4-hydroxy-3-(2-((S)-1-hydroxyethyl)-1H-imidazol-1-yl)but-1-yn-1-yl)-[1,1′-biphenyl]-4-yl)cyclobutane-1-carbonitrile] | –
17 | 0.5 (≈ 1.19 µM) | 0.25 (≈ 0.597 µM) | 4 (≈ 9.56 µM) | 2 (≈ 4.78 µM) | C[C@H](O)c1nccn1[C@@H](C#Cc1ccc(-c2ccc(OC3(C)COC3)cc2)cc1)CO [Compound 136, (S)-2-(2-((S)-1-hydroxyethyl)-1H-imidazol-1-yl)-4-(4′-((3-methyloxetan-3-yl)oxy)-[1,1′-biphenyl]-4-yl)but-3-yn-1-ol] | –
18 | 0.25 (≈ 0.6 µM) | 0.12 (≈ 0.288 µM) | 4 (≈ 9.6 µM) | 2 (≈ 4.8 µM) | CO[C@H]1C[C@H](c2ccc(-c3ccc(C#C[C@@H](CO)n4ccnc4[C@H](C)O)cc3)cc2)C1 (racemic) [Compound 117, (S)-2-(2-((S)-1-hydroxyethyl)-1H-imidazol-1-yl)-4-(4′-((rac-trans)-3-methoxycyclobutyl)-[1,1′-biphenyl]-4-yl)but-3-yn-1-ol] | –
19 | 1 (≈ 2.18 µM) | 0.5 (≈ 1.09 µM) | 2 (≈ 4.35 µM) | 2 (≈ 4.35 µM) | CNC(=O)[C@H]1C[C@H](Oc2ccc(-c3ccc(C#C[C@@H](CO)n4ccnc4[C@H](C)O)cc3)cc2)C1 (racemic) [Compound 122, (rac-trans)-3-((4′-((S)-4-hydroxy-3-(2-((S)-1-hydroxyethyl)-1H-imidazol-1-yl)but-1-yn-1-yl)-[1,1′-biphenyl]-4-yl)oxy)-N-methylcyclobutane-1-carboxamide] | –
20 | 0.5 (≈ 1.2 µM) | 0.25 (≈ 0.6 µM) | 2 (≈ 4.8 µM) | 1.5 (≈ 3.6 µM) | C[C@H](O)c1nccn1[C@@H](C#Cc1ccc(-c2ccc(C3CC(C)(O)C3)cc2)cc1)CO (stereo partly drawn) [Compound 111, 3-(4′-((S)-4-hydroxy-3-(2-((S)-1-hydroxyethyl)-1H-imidazol-1-yl)but-1-yn-1-yl)-[1,1′-biphenyl]-4-yl)-1-methylcyclobutan-1-ol] | –
21 | 1 (≈ 2.33 µM) | 0.25 (≈ 0.582 µM) | 4 (≈ 9.31 µM) | 2 (≈ 4.66 µM) | C[C@H](O)c1nccn1[C@@H](C#Cc1ccc(-c2ccc(N3CC4(COC4)C3)cc2)cc1)CO (single isomer, unassigned) [Compound 75] | –
